± gives the standard deviation of the averaged measurements.
Legend:
CELECOXIB = compound: Cc1ccc(-c2cc(C(F)(F)F)nn2-c2ccc(S(N)(=O)=O)cc2)cc1 [CELECOXIB]; assay: surviving fraction relative to DMSO-only wells; higher = less growth inhibition; settings: exposure time: 5 days
Summary of the method: (§1)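 In 384-well plates, 250–500 log-phase tumour cells per well were given 24 hours before five days of continuous exposure to inhibitors at 0.5, 1, 5, 10, 50, 100, 500 and 1000 nM. Surviving fraction is luminescence from CellTiter-Glo, normalised to the median of wells containing DMSO alone. Reading took place after 10 minutes at room temperature.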

GEFITINIB = compound: COc1cc2ncnc(Nc3ccc(F)c(Cl)c3)c2cc1OCCCN1CCOCC1 [GEFITINIB]; assay: as above; settings: exposure time: 5 days
Summary of the method: as §1

Row | Test System | surviving fraction (CELECOXIB; 0.5 nM) | surviving fraction (CELECOXIB; 1 nM) | surviving fraction (CELECOXIB; 5 nM) | surviving fraction (CELECOXIB; 10 nM) | surviving fraction (CELECOXIB; 50 nM) | surviving fraction (CELECOXIB; 100 nM) | surviving fraction (CELECOXIB; 500 nM) | surviving fraction (CELECOXIB; 1000 nM) | surviving fraction (GEFITINIB; 0.5 nM) | surviving fraction (GEFITINIB; 1 nM) | surviving fraction (GEFITINIB; 5 nM) | surviving fraction (GEFITINIB; 10 nM) | surviving fraction (GEFITINIB; 50 nM) | surviving fraction (GEFITINIB; 100 nM) | surviving fraction (GEFITINIB; 500 nM) | surviving fraction (GEFITINIB; 1000 nM)
1 | 22RV1 PROSTATE | 1.02 ± 0.059 | 1.06 ± 0.082 | 0.996 ± 0.088 | 1.03 ± 0.025 | 0.956 ± 0.17 | 1.01 ± 0.16 | 1.02 ± 0.12 | 1.06 ± 0.035 | 1 ± 0.023 | 0.984 ± 0.18 | 0.979 ± 0.085 | 1 ± 0.058 | 0.987 ± 0.18 | 1.03 ± 0.15 | 1.04 ± 0.17 | 1.03 ± 0.12
2 | 93VU HEADNECK | 1.02 ± 0.064 | 1.11 ± 0.076 | 1.1 ± 0.043 | 1.08 ± 0.16 | 1.03 ± 0.083 | 1.08 ± 0.15 | 1.08 ± 0.052 | 1.07 ± 0.086 | – | 1.07 ± 0.075 | 1.08 ± 0.027 | 1.04 ± 0.055 | 0.878 ± 0.044 | 0.751 ± 0.034 | 0.449 ± 0.044 | 0.383 ± 0.062
3 | A549 LUNG | 1.04 ± 0.039 | 1.05 ± 0.025 | 1.05 ± 0.045 | 1.05 ± 0.029 | 1.08 ± 0.044 | 1.08 ± 0.045 | 1.11 ± 0.057 | 1.05 ± 0.044 | 1.05 ± 0.043 | 1.05 ± 0.024 | 1.07 ± 0.04 | 1.02 ± 0.013 | 1.05 ± 0.033 | 1.05 ± 0.051 | 1.05 ± 0.047 | 1.03 ± 0.037
4 | ASKA SYNOVIAL | 1.16 ± 0.098 | 1.15 ± 0.074 | 1.2 ± 0.05 | 1.19 ± 0.048 | 1.19 ± 0.12 | 1.21 ± 0.064 | 1.15 ± 0.073 | 1.12 ± 0.039 | 1.13 ± 0.052 | 1.11 ± 0.06 | 1.05 ± 0.085 | 1.16 ± 0.051 | 1.19 ± 0.077 | 1.16 ± 0.073 | 1.08 ± 0.053 | 1.1 ± 0.058
5 | BT20 BREAST | 1.14 ± 0.085 | 1.1 ± 0.035 | 1.08 ± 0.059 | 1.19 ± 0.077 | 1.11 ± 0.072 | 1.22 ± 0.061 | 1.23 ± 0.059 | 1.07 ± 0.047 | 1.14 ± 0.02 | 1.19 ± 0.063 | 1.13 ± 0.11 | 1.15 ± 0.043 | 1.06 ± 0.011 | 1.06 ± 0.013 | 1.05 ± 0.04 | 0.984 ± 0.085
6 | BT549 BREAST | 1.02 ± 0.08 | 1.06 ± 0.088 | 1.07 ± 0.16 | 1.24 ± 0.062 | 1.15 ± 0.068 | 1.28 ± 0.067 | 1.18 ± 0.03 | 1.15 ± 0.058 | 1.1 ± 0.18 | 1.03 ± 0.073 | 1.04 ± 0.13 | 0.946 ± 0.094 | 1.17 ± 0.14 | 1.21 ± 0.046 | 1.057 ± 0.007 | 1.11 ± 0.15
7 | C33A CERVIX | 0.897 ± 0.037 | 0.951 ± 0.11 | 1.01 ± 0.083 | 0.954 ± 0.037 | 0.932 ± 0.11 | 1.04 ± 0.088 | 0.981 ± 0.13 | 1.11 ± 0.035 | 0.925 ± 0.067 | 1.01 ± 0.063 | 1.01 ± 0.018 | 0.969 ± 0.049 | 0.91 ± 0.052 | 0.973 ± 0.02 | 0.551 ± 0.054 | 0.457 ± 0.058
8 | CADOES1 SOFT TISSUE | 0.792 ± 0.11 | 0.925 ± 0.091 | 0.807 ± 0.17 | 0.984 ± 0.052 | 0.973 ± 0.043 | 0.942 ± 0.024 | 0.888 ± 0.045 | 0.827 ± 0.097 | 1.01 ± 0.045 | 0.9 ± 0.058 | 0.852 ± 0.063 | 0.906 ± 0.13 | 0.824 ± 0.12 | 0.942 ± 0.11 | 0.953 ± 0.12 | 0.995 ± 0.16
9 | CAL51 BREAST | 1.03 ± 0.023 | 1.04 ± 0.056 | 0.991 ± 0.026 | 0.998 ± 0.08 | 1.07 ± 0.027 | 1.11 ± 0.03 | 1.07 ± 0.021 | 1.05 ± 0.064 | 1.01 ± 0.089 | 0.995 ± 0.07 | 1.01 ± 0.015 | 1 ± 0.036 | 1.08 ± 0.035 | 1.02 ± 0.016 | 1.13 ± 0.015 | 1.07 ± 0.066
10 | CAL72 BONE | 1.03 ± 0.1 | 1.04 ± 0.14 | 1.05 ± 0.11 | 1.04 ± 0.046 | 1.06 ± 0.12 | 1.08 ± 0.17 | 1.07 ± 0.13 | 1.09 ± 0.12 | 1.01 ± 0.11 | 1.02 ± 0.088 | 1.05 ± 0.099 | 1.02 ± 0.082 | 1.11 ± 0.054 | 1.13 ± 0.098 | 1.07 ± 0.074 | 1.05 ± 0.11
11 | CAL120 BREAST | 0.962 ± 0.045 | 0.979 ± 0.039 | 0.964 ± 0.067 | 0.99 ± 0.049 | 1 ± 0.04 | 1.01 ± 0.032 | 0.995 ± 0.085 | 1 ± 0.011 | 0.964 ± 0.046 | 0.965 ± 0.031 | 0.968 ± 0.025 | 0.956 ± 0.039 | 1.016 ± 0.0095 | 0.985 ± 0.031 | 0.995 ± 0.035 | 0.93 ± 0.042
12 | CASKI CERVIX | 0.944 ± 0.024 | 0.881 ± 0.056 | 0.952 ± 0.029 | 0.93 ± 0.055 | 1.01 ± 0.027 | 1 ± 0.051 | 0.933 ± 0.034 | 0.972 ± 0.11 | 0.956 ± 0.025 | 0.929 ± 0.096 | 0.851 ± 0.032 | 0.815 ± 0.042 | 0.556 ± 0.015 | 0.471 ± 0.011 | 0.308 ± 0.018 | 0.213 ± 0.0095
13 | CCK81 LARGE INTESTINE | 0.841 ± 0.1 | 0.867 ± 0.052 | 0.744 ± 0.14 | 0.819 ± 0.059 | 0.774 ± 0.094 | 0.732 ± 0.099 | 0.735 ± 0.089 | 0.813 ± 0.077 | 0.85 ± 0.091 | 0.849 ± 0.081 | 0.77 ± 0.12 | 0.72 ± 0.06 | 0.628 ± 0.091 | 0.325 ± 0.12 | 0.0823 ± 0.018 | 0.076 ± 0.012
14 | CHLA90 AUTONOMIC GANGLIA | 1.01 ± 0.048 | 0.999 ± 0.058 | 0.99 ± 0.054 | 1.03 ± 0.12 | 1.03 ± 0.088 | 1 ± 0.15 | 0.999 ± 0.058 | 1.08 ± 0.026 | 0.939 ± 0.022 | 0.905 ± 0.089 | 0.873 ± 0.052 | 0.848 ± 0.056 | 0.902 ± 0.069 | 0.876 ± 0.041 | 0.881 ± 0.044 | 0.801 ± 0.066
15 | CME SYNOVIAL | 1.4 ± 0.11 | 1.45 ± 0.18 | 1.37 ± 0.076 | 1.34 ± 0.079 | 1.47 ± 0.23 | 1.41 ± 0.16 | 1.38 ± 0.13 | 1.34 ± 0.076 | 1.32 ± 0.14 | 1.3 ± 0.036 | 1.4 ± 0.12 | 1.44 ± 0.17 | 1.39 ± 0.12 | 1.41 ± 0.17 | 1.28 ± 0.096 | 1.18 ± 0.047
16 | COLO320DM LARGE INTESTINE | 1.12 ± 0.18 | 1.12 ± 0.17 | 1.15 ± 0.075 | 1.12 ± 0.15 | 1.14 ± 0.043 | 1.15 ± 0.025 | 1.15 ± 0.074 | 1.13 ± 0.031 | 1.17 ± 0.07 | 1.21 ± 0.051 | 1.13 ± 0.081 | 1.1 ± 0.026 | 1.14 ± 0.085 | 1.2 ± 0.1 | 1.05 ± 0.14 | 1.06 ± 0.094
17 | G292 BONE | 1.03 ± 0.028 | 1.02 ± 0.05 | 1.03 ± 0.039 | 1 ± 0.057 | 1.04 ± 0.02 | 1.02 ± 0.047 | 0.996 ± 0.045 | 0.964 ± 0.076 | 0.976 ± 0.023 | 1.03 ± 0.045 | 1.04 ± 0.035 | 1.059 ± 0.0083 | 1.03 ± 0.052 | 1.04 ± 0.04 | 0.954 ± 0.038 | 0.9402 ± 0.0094
18 | H23 LUNG | 1.01 ± 0.018 | 1.04 ± 0.062 | 1.04 ± 0.021 | 1.03 ± 0.05 | 1.07 ± 0.05 | 1.18 ± 0.067 | 1.18 ± 0.015 | 1.16 ± 0.074 | 1.01 ± 0.07 | 0.997 ± 0.032 | 0.989 ± 0.014 | 0.918 ± 0.03 | 0.603 ± 0.075 | 0.458 ± 0.053 | 0.356 ± 0.05 | 0.346 ± 0.0093
19 | HCC38 BREAST | 1.17 ± 0.23 | 1.4 ± 0.23 | 1.33 ± 0.23 | 1.36 ± 0.25 | 1.25 ± 0.1 | 1.17 ± 0.0085 | 1.09 ± 0.095 | 1.15 ± 0.12 | 1.05 ± 0.086 | 1.33 ± 0.089 | 1.25 ± 0.17 | 1.24 ± 0.1 | 1.23 ± 0.13 | 1.29 ± 0.03 | 1.1 ± 0.096 | 1.18 ± 0.053
20 | HCC70 BREAST | 1.07 ± 0.049 | 1.045 ± 0.0081 | 1.08 ± 0.067 | 1.13 ± 0.091 | 1.06 ± 0.044 | 1.04 ± 0.099 | 1.2 ± 0.14 | 1.18 ± 0.038 | 1.03 ± 0.13 | 0.976 ± 0.048 | 1.15 ± 0.14 | 1.02 ± 0.075 | 1.03 ± 0.042 | 1.01 ± 0.088 | 0.815 ± 0.048 | 0.848 ± 0.068

From the supplement of paper PMC6045584
